Assay results from patent US20020183307A1, “Novel 1,4-benzothiazephine and 1,5-benzothiazepine compounds as inhibitors of apical sodium co-dependent bile acid transport and taurocholate uptake” (priority 2000, published 2002).

molecular target: T1, human IBAT (Homo sapiens, UniProt Q12908); experiment: In vitro assay of compounds that inhibit IBAT-mediated uptake of [14C]-taurocholate (TC) in H14 cells; format: cell-based; conditions: Table 7, 1,5-benzothiazepines; 50% inhibitory concentrations by the biological evaluation procedures
T1 construct: expressed in transfected cells; host or cells: Baby hamster kidney (BHK) cells, H14 clone
T1 sequence (Q12908 1-348): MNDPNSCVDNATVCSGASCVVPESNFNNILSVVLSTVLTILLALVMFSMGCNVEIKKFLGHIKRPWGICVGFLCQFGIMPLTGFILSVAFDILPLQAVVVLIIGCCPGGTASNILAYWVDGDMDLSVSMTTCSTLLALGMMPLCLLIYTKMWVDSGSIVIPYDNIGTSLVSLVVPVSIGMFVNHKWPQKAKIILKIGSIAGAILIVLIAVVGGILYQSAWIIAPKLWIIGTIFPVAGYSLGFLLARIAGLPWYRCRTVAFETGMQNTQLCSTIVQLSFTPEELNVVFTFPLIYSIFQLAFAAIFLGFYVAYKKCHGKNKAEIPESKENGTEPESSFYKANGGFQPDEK
Protocol: In Vitro Assay of Compounds That Inhibit IBAT-mediated Uptake of [^14C]-Taurocholate (TC) in H14 Cells
Baby hamster kidney cells (BHK) transfected with the cDNA of human IBAT (Hl4 cells) are seeded in 96 well Top-Count tissue culture plates at 60,000 cells/well for assays run within 24 hours of seeding, 30,000 cells/well for assays run within 48 hours, and 10,000 cells/well for assays run within 72 hours.
On the day of assay, the cell monolayer is gently washed once with […] (Dulbecco's Modified Eagle's medium with 4.5 g/L glucose plus 0.2% (w/v) fatty acid free bovine serum albumin ((FAF)BSA). To each well […] of a two-fold concentrate of test compound in assay buffer is added along with […] of […] [^14C]-taurocholate in assay buffer (final concentration of […] [^14C]-taurocholate).
The cell culture plates are incubated 2 hours at 37° C. prior to gently washing each well twice with […] 4° C. Dulbecco's phosphate-buffered saline (PBS) containing 0.2% (w/v) (FAF)BSA. The wells are then gently washed once with […] 4° C. PBS without (FAF)BSA. To each […] of liquid, scintillation counting fluid is added.
The plates are heat sealed and shaken for 30 minutes at room temperature prior to measuring the amount of radioactivity in each well on a Packard Top-Count instrument.

Compared with CCCCC1(CCCC)CN(c2ccc(OCc3ccc(C[N+]45CCN(CC4)CC5)cc3)cc2)c2cc(N(C)C)ccc2S(=O)(=O)C1 [PHA00384640E], CCCCC1(CCCC)CN(c2ccc(OC)cc2)c2cc(N(C)C)ccc2S(=O)(=O)C1 [SC-86287] is 9.3-fold higher in IC50: 31 nM for the first, 289 nM for the second. The first is the more potent here.

CCCCC1(CCCC)CN(c2ccc(OCCN(CC)CC)cc2)c2cc(N(C)C)ccc2S(=O)(=O)C1 [PHA00400670] and CCCCC1(CCCC)CN(c2ccc(OCC[N+](CC)(CC)CC)cc2)c2cc(N(C)C)ccc2S(=O)(=O)C1 [PHA00400884E] cannot be ordered by IC50: 26400 nM for the first, > 1000 nM for the second.

CCCCC1(CCCC)CN(c2ccc(OCCOCCOCC[N+](CC)(CC)CC)cc2)c2cc(N(C)C)ccc2S(=O)(=O)C1 [PHA00400885E] and CCCCC1(CCCC)CN(c2ccc(OC)cc2)c2cc(F)ccc2S(=O)(=O)C1 [SC-86288] are within 1.5-fold of each other in IC50: 300 nM for the first, 320 nM for the second.

same assay, conditions: Table 8, 1,4 and 1,5 benzothiazipines; additional IC50 values

First: CCCCC1(CCCC)CS(=O)(=O)c2ccc(N(C)C)cc2[C@@H](c2ccc(OCC[N+](CC)(CC)CC)cc2)N1 (racemic) [Compound 3, N-[2-[4-[3,3-Dibutyl-7-(dimethylamino)-2,3,4,5-etrahydro-1,1-dioxido-1,4-benzothiazepin-5-yl]phenoxy]ethyl]-N,N,N-triethylaminium Iodide]
Second: CCCCC1(CCCC)CS(=O)(=O)c2ccc(N(C)C)cc2[C@@H](c2ccc(OCCOCCOCC[N+](CC)(CC)CC)cc2)N1 (racemic) [Compound 4, N-[2-[2-[2-[4-[3,3-Dibutyl-7-(dimethylamino)-2,3,4,5-tetrahydro-1,1-dioxido-1 4-benzothiazepin-5-yl]phenoxy]ethoxy]ethoxy]ethoxy]-N,N,N-triethylaminium Iodide]
The IC50 of the first is 28-fold higher: 2090 nM for the first, 74 nM for the second. The second is the more potent here.

CCCCC1(CCCC)CS(=O)(=O)c2ccc(N(C)C)cc2[C@@H](c2ccc(OCc3ccc(C[N+]45CCN(CC4)CC5)cc3)cc2)N1 (racemic) [Compound 5] and CCCCC1(CCCC)CN(c2ccc(OCc3ccc(C[N+]45CCN(CC4)CC5)cc3)cc2)c2cc(N(C)C)ccc2S(=O)(=O)C1 [Compound 9, 1-[[4-[[4-[3,3-Dibutyl-7-(dimethylamino)-2,3,4,5-tetrahydro-1,1-dioxido-1,5-benzothiazepin-5-yl]phenoxy]methyl]phenyl]methyl]-4-aza-1-azoniabicyclo[2.2.2]octane Chloride] are within 1.5-fold of each other in IC50: 22 nM for the first, 30 nM for the second.

Compared with CCCC[C@]1(CC)CS(=O)(=O)c2ccccc2[C@@H](c2ccccc2)N1 [Compound 1], CCCCC1(CCCC)CN(c2ccc(OC)cc2)c2cc(N(C)C)ccc2S(=O)(=O)C1 [Compound 6, 3,3-Dibutyl-2,3,4,5-tetrahydro-7-dimethylamino-5-(4′-methoxyphenyl)-1,5-benzothiazepine1,1-dioxide] is 2.1-fold lower in IC50: 600 nM for the first, 289 nM for the second.

First: CCCCC1(CCCC)CN(c2ccc(OCC[N+](CC)(CC)CC)cc2)c2cc(N(C)C)ccc2S(=O)(=O)C1 [Compound 7]
Second: CCCCC1(CCCC)CN(c2ccc(OCCOCCOCC[N+](CC)(CC)CC)cc2)c2cc(N(C)C)ccc2S(=O)(=O)C1 [Compound 8, N-[2-[2-[2-[4-[3,3-Dibutyl-7-(dimethylamino)-2,3,4,5-tetrahydro-1,1-dioxido-1,5-benzothiazepin-5-yl]phenoxy]ethoxy]ethoxy]ethoxy]-NNN-triethylaminium Iodide]
The IC50 of the first is 50-fold higher: 15100 nM for the first, 300 nM for the second. The second is the more potent here.
